Assay results reported in ChEMBL document CHEMBL1201862, “PubChem BioAssay data set” (2004).
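Step 1: Grow cells in 96-well plates. Step 2: Expose to compound for 48 hours at 5 concentrations. Step 3: Interpolate endpoints linearly; if unreached, use highest concentration. GI50 is the concentration that inhibits growth by half.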 Activity calls are given as the source filed them. Cut-off read from the data, not from the text of the source: active = GI50 up to about 1.1 µM and inactive = higher.

Columns and labels:
Experiment in all cases: DTP human tumour cell line panel, 48 h
[1] = system: K562
[2] = system: SW-620
[3] = system: OVCAR-5
[4] = system: SF-268
[5] = system: NCI-H23
[6] = system: CCRF-CEM
[7] = system: NCI-H460
[8] = system: KM12
[9] = system: SK-MEL-5
[10] = system: EKVX
[11] = system: HCT-116
[12] = system: CAKI-1
[13] = system: OVCAR-4
[14] = system: OVCAR-8
[15] = system: RPMI-8226
[16] = system: HL-60
[17] = system: SK-MEL-28
[18] = system: RXF 393

Measured: GI50

CC(=O)O/C=C(/C=C/OC(C)=O)C(C/C=C(\C)C#CC=C(C)C)OC(C)=O (configuration not stated)
inactive: [1] 21 µM | [2] 42.3 µM | [3] > 100 µM | [4] > 100 µM | [5] 38.6 µM | [6] 26.1 µM | [7] > 100 µM | [8] 23.1 µM | [9] 72.6 µM | [10] 93.5 µM | [11] 18.3 µM | [12] > 100 µM | [13] 38.4 µM | [14] 37 µM | [15] 25.8 µM | [16] 8.51 µM

O=C(NCCCOC(=O)CCCCCCCCC(=O)OCCCNC(=O)NC(=O)c1c[nH]c(=O)[nH]c1=O)NC(=O)c1c[nH]c(=O)[nH]c1=O
inactive: [1] > 100 µM | [2] > 100 µM | [3] > 100 µM | [4] > 100 µM | [5] 45.1 µM | [6] > 100 µM | [7] > 100 µM | [8] > 100 µM | [9] > 100 µM | [10] > 100 µM | [11] > 100 µM | [17] > 100 µM | [12] > 100 µM | [13] > 100 µM | [14] > 100 µM | [15] > 100 µM | [16] > 100 µM

CC(=O)NC1CC2Oc3ccc(C)cc3C(C)(O2)C1O (configuration not stated)
inactive: [18] > 100 µM | [1] > 100 µM | [2] > 100 µM | [5] > 100 µM | [6] > 100 µM | [7] > 100 µM | [8] > 100 µM | [10] > 100 µM | [11] > 100 µM | [17] > 100 µM | [14] > 100 µM | [15] > 100 µM | [16] > 100 µM

FC(F)(F)c1ccc2c(c1)N(CCCNCCN1CCOCC1)c1ccccc1S2
inactive: [18] 2.62 µM | [1] 2.99 µM | [2] 10.2 µM | [3] 11.3 µM | [4] 15.9 µM | [5] 12.3 µM | [6] 12.6 µM | [7] 11.2 µM | [8] 11.6 µM | [9] 3.8 µM | [10] 15 µM | [11] 3.17 µM | [17] 5.2 µM | [14] 16.6 µM | [15] 7.19 µM | [16] 6.07 µM

CCOC(=O)C1Nc2ccc([N+](=O)[O-])cc2[C@H]2OCC[C@@H]12 (some centres not stated)
inactive: [18] > 100 µM | [1] > 100 µM | [2] > 100 µM | [3] > 100 µM | [4] > 100 µM | [5] > 100 µM | [6] > 100 µM | [7] > 100 µM | [8] > 100 µM | [9] > 100 µM | [10] > 100 µM | [11] > 100 µM | [17] > 100 µM | [12] > 100 µM | [13] > 100 µM | [14] > 100 µM | [16] > 100 µM

CCN(CC)CC1CCCCCCCCCCC1=O (configuration not stated)
inactive: [1] > 100 µM | [2] > 100 µM | [3] > 100 µM | [4] > 100 µM | [5] > 100 µM | [6] > 100 µM | [7] > 100 µM | [8] > 100 µM | [9] > 100 µM | [10] > 100 µM | [11] > 100 µM | [17] > 100 µM | [13] > 100 µM | [14] > 100 µM | [15] > 100 µM | [16] > 100 µM

Cn1nc2ccc3nccc(N(CCO)CCO)c3c2n1
inactive: [18] > 100 µM | [1] > 100 µM | [2] > 100 µM | [3] > 100 µM | [4] > 100 µM | [5] > 100 µM | [6] > 100 µM | [7] > 100 µM | [8] > 100 µM | [9] > 100 µM | [10] > 100 µM | [11] > 100 µM | [17] > 100 µM | [12] > 100 µM | [14] > 100 µM | [15] > 100 µM | [16] > 100 µM

CCOC(=O)C(=C=C=C(c1ccccc1)c1ccccc1)C(=O)OCC
inactive: [18] 10.7 µM | [1] 11.3 µM | [2] 21.5 µM | [3] 18.1 µM | [4] 25.8 µM | [5] 38.5 µM | [6] 3.52 µM | [7] 22.8 µM | [8] 19.6 µM | [9] > 10 µM | [10] 26.7 µM | [11] 18.5 µM | [17] 17.4 µM | [13] 18.3 µM | [14] 21.9 µM | [15] 14.1 µM | [16] 15.4 µM

O=c1[nH]c(C2CCCCC2)nc2ccc(Cl)cc12
inactive: [18] > 100 µM | [1] > 100 µM | [2] > 100 µM | [3] > 100 µM | [4] > 100 µM | [5] > 100 µM | [8] > 100 µM | [9] > 100 µM | [10] > 100 µM | [11] > 100 µM | [17] > 100 µM | [14] > 100 µM | [15] > 100 µM

O=S(OC12CC3CC(CC(C3)C1)C2)c1cc(Cl)cc(Cl)c1OCc1ccccc1 (configuration not stated)
inactive: [18] > 100 µM | [1] > 100 µM | [3] > 100 µM | [4] > 100 µM | [5] > 100 µM | [6] > 100 µM | [7] > 100 µM | [8] > 100 µM | [10] > 100 µM | [11] > 100 µM | [17] > 100 µM | [13] > 100 µM | [16] > 100 µM

COc1ccc(/C(Cl)=C(\C=O)c2ccc(Cl)c(Cl)c2)cc1
inactive: [1] 4.04 µM | [2] 4.53 µM | [4] 5.3 µM | [5] 4.4 µM | [6] 2.96 µM | [7] 5.25 µM | [9] 13 µM | [10] 17.1 µM | [11] 3.83 µM | [17] 14.4 µM | [12] 9.12 µM | [14] 5.57 µM | [15] 2.56 µM | [16] 4.12 µM

CC(=O)O[C@H]1C=CC(=O)C(C)CC1C (some centres not stated)
inactive: [18] 42.6 µM | [1] > 100 µM | [2] 73.5 µM | [3] > 100 µM | [4] > 100 µM | [5] 75.9 µM | [6] 60.1 µM | [7] > 100 µM | [8] > 100 µM | [9] > 100 µM | [10] > 100 µM | [11] 44.8 µM | [17] > 100 µM | [12] > 100 µM | [13] > 100 µM | [16] 64.9 µM

C/C(=N/NC(=O)CC(=O)N(C(=O)c1ccccc1Cl)c1ccc(C)cc1)c1cc2ccccc2oc1=O
inactive: [18] > 100 µM | [1] > 100 µM | [2] > 100 µM | [3] > 100 µM | [4] > 100 µM | [5] 45.5 µM | [6] > 100 µM | [7] > 100 µM | [8] > 100 µM | [9] 65.3 µM | [10] > 100 µM | [11] > 100 µM | [17] > 100 µM | [12] > 100 µM | [13] > 100 µM | [14] > 100 µM | [16] > 100 µM
